# Experimental data taken from patent publication US12091425B2 (AMGEN INC., priority 2016, dated 2024).
# Assays:
# [1] = test system: OPM-2 human multiple myeloma cell line; test: Cell Viability Assay (OPM-2 10 FBS); format: cell-based; details: Homo sapiens, OPM-2 cells, CellTiter-Glo
# In short: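 OPM-2 myeloma cells, 3000/well in medium with 10% FBS, exposed to serially diluted compounds for 16 h at 37° C./5% CO2. Viability read by CellTiter-Glo luminescence; IC50 from 4-parameter logistic fit.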
# [2] = biological target: T1, Mcl-1/Bim interaction, recombinant human Mcl-1 (171-327) (Homo sapiens, UniProt Q07820); test: Cell free Mcl-1: Bim Affinity Assay (Mcl-1 HTRF); format: binding
# T1 construct: made in house
# In short: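 Displacement of biotinylated Bim 51-76 peptide is followed by TR-FRET. Incubation runs overnight. Duplicate points are fitted with a four-parameter sigmoid to yield IC50.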
# [3] = cell free Mcl-1:Bim TR-FRET, recombinant human Mcl-1 (171-327)
# [4] = TR-FRET, 0.1 nM Mcl-1 (171-327), 0.05 nM biotin-Bim (51-76)
# T1 sequence (Q07820 171-327): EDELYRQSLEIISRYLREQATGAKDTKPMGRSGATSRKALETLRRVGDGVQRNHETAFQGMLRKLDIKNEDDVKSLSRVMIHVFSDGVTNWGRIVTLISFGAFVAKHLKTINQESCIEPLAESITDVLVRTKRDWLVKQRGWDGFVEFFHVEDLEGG
Structure (SMILES),"IC50 ([1]; OPM-2, 16 h, 16 h) [nM]","IC50 [2, 3] [nM]",IC50 ([1]; 16 h incubation) [nM],"IC50 [2, 4] [nM]","IC50 ([1]; OPM-2, 16 h, 16 h incubation) [nM]"
"C[C@@H]1[C@@H](C)C/C=C/[C@H](OCCC2CCN(C(=O)OC(C)(C)C)CC2)[C@@H]2CC[C@H]2CN2C[C@@]3(CCCc4cc(Cl)ccc43)COc3ccc(cc32)C(=O)NS1(=O)=O [Example 737, tert-butyl 4-(2-(((1S,3′R,6′R,7′S,8′E,11′S,12′R)-6-chloro-11′,12′-dimethyl-13′,13′-dioxido-15′-oxo-3,4-dihydro-2H-spiro[naphthalene-1,22′-[20]oxa[13]thia[1,14]diazatetracyclo[14.7.2.0˜3,6˜.0˜19,24˜]pentacosa[8,16,18,24]tetraen]-7′-yl)oxy)ethyl)-1-piperidinecarboxylate]",3390,15.1,,,
"CCOC(=O)CO[C@H]1/C=C/C[C@H](C)[C@H](C)S(=O)(=O)NC(=O)c2ccc3c(c2)N(C[C@@H]2CC[C@H]21)C[C@@]1(CCCc2cc(Cl)ccc21)CO3 [Example 738, ethyl (((1S,3′R,6′R,7′S,8′E,11′S,12′S)-6-chloro-11′,12′-dimethyl-13′,13′-dioxido-15′-oxo-3,4-dihydro-2H-spiro[naphthalene-1,22′-[20]oxa[13]thia[1,14]diazatetracyclo[14.7.2.0^3,6.0^19,24]pentacosa[8,16,18,24]tetraen]-7′-yl)oxy)acetate]",1760,3.21,,,
"C[C@H]1C/C=C/[C@H](OCC(=O)O)[C@@H]2CC[C@H]2CN2C[C@@]3(CCCc4cc(Cl)ccc43)COc3ccc(cc32)C(=O)NS(=O)(=O)[C@H]1C [Example 739, (((1S,3′R,6′R,7′S,8′E,11′S,12′S)-6-chloro-11′,12′-dimethyl-13′,13′-dioxido-15′-oxo-3,4-dihydro-2H-spiro[naphthalene-1,22′-[20]oxa[13]thia [1,14]diazatetracyclo[14.7.2.0^3,6.0^19,24]pentacosa[8,16,18,24]tetraen]-7′-yl)oxy)acetic Acid]",24200,0.141,,,
"CC[C@@H]1[C@@H](C)C/C=C/[C@H](OCCOC)[C@@H]2CC[C@H]2CN2C[C@@]3(CCCc4cc(Cl)ccc43)COc3ccc(cc32)C(=O)NS1(=O)=O [Example 740, (1S,3′R,6′R,7′S,8′E,11′S,12′R)-6-chloro-12′-ethyl-7′-(2-methoxyethoxy)-11′-methyl-3,4-dihydro-2H,15′H-spiro[naphthalene-1,22′-[20]oxa[13]thia[1,14]diazatetracyclo[14.7.2.0^3,6.0^19,24]pentacosa [8,16,18,24]tetraen]-15′-one-13′, 13′-dioxide]",170,0.543,,,
"CC[C@@H]1C/C=C/[C@H](OCC(=O)OC)[C@@H]2CC[C@H]2CN2C[C@@]3(CCCc4cc(Cl)ccc43)COc3ccc(cc32)C(=O)NS(=O)(=O)C1 [Example 741, methyl (((1S,3′R,6′R,7′S,8′E,11′R)-6-chloro-11′-ethyl-13′,13′-dioxido-15′-oxo-3,4-dihydro-2H-spiro[naphthalene-1,22′-[20]oxa[13]thia [1,14]diazatetracyclo[14.7.2.0^3,6.0^19,24]pentacosa[8,16,18,24]tetraen]-7′-yl)oxy)acetate]",3110,13.5,,,
"CC[C@@H]1C/C=C/[C@H](OCC(=O)O)[C@@H]2CC[C@H]2CN2C[C@@]3(CCCc4cc(Cl)ccc43)COc3ccc(cc32)C(=O)NS1(=O)=O [Example 764, (((1S,3′R,6′R,7′S,8′E,11′R)-6-chloro-11′-ethyl-12′,12′-dioxido-14′-oxo-3,4-dihydro-2H-spiro[naphthalene-1,21′-[19]oxa[12]thia[1,13]diazatetracyclo[13.7.2.0^3,6.0^18,23]tetracosa[8,15,17,23]tetraen]-7′-yl)oxy)acetic Acid]",11200,0.113,,,
"COc1ccc(CNCCO[C@H]2/C=C/C[C@H](C)[C@@H](C)S(=O)(=O)NC(=O)c3ccc4c(c3)N(C[C@@H]3CC[C@H]32)C[C@@]2(CCCc3cc(Cl)ccc32)CO4)c(OC)c1 [Example 777, (1S,3′R,6′R,7′S,8′E,11′S,12′R)-6-chloro-7′-(2-((2,4-dimethoxybenzyl)amino)ethoxy)-11′,12′-dimethyl-3,4-dihydro-2H,15′H-spiro[naphthalene-1,22′-[20]oxa[13]thia[1,14]diazatetracyclo[14.7.2.0^3,6.0^19,24]pentacosa[8,16,18,24]tetraen]-15′-one-13′, 13′-dioxide]",912,13.8,,,
"C=C1CCCC[C@@H](CC)S(=O)(=O)NC(=O)c2ccc3c(c2)N(C[C@@H]2CC[C@@H]12)C[C@@]1(CCCc2cc(Cl)ccc21)CO3 [Example 859, (1S,3′R,6′R,12′R)-6-chloro-12′-ethyl-7′-methylidene-3,4-dihydro-2H,15′H-spiro[naphthalene-1,22′-[20]oxa[13]thia[1,14]diazatetracyclo[14.7.2.0^3,6.0^19,24]pentacosa [16,18,24]trien]-15′-one 13′,13′-dioxide]",11500,15.8,,,
"O=C1NS(=O)(=O)CCC/C=C/[C@@H](O)[C@@H]2CC[C@H]2CN2C[C@@]3(CCCc4cc(Cl)ccc43)COc3ccc1cc32 [Example 952, (1S,3′R,6′R,7′R,8′E)-6-chloro-7′-hydroxy-3,4-dihydro-2H,15′H-spiro[naphthalene-1,22′-[20]oxa[13]thia[1,14]diazatetracyclo[14.7.2.0^3,6.0^19,24]pentacosa [8,16,18,24]tetraen]-15′-one 13′,13′-dioxide]",,,6380,1.28,
"C[C@@H]1CC/C=C/[C@H](OCc2ncccn2)[C@@H]2CC[C@H]2CN2C[C@@]3(CCCc4cc(Cl)ccc43)COc3ccc(cc32)C(=O)NS1(=O)=O [Example 956, (1S,3′R,6′R,7′S,8′E,12′R)-6-chloro-12′-methyl-7′-(2-pyrimidinylmethoxy)-3,4-dihydro-2H,15′H-spiro[naphthalene-1,22′-[20]oxa[13]thia[1,14]diazatetracyclo[14.7.2.0^3,6.0^19,24]pentacosa [8,16,18,24]tetraen]-15′-one 13′,13′-dioxide]",,,,0.275,211
"C[C@@H]1CC/C=C/[C@H](OCc2nnn(C)n2)[C@@H]2CC[C@H]2CN2C[C@@]3(CCCc4cc(Cl)ccc43)COc3ccc(cc32)C(=O)NS1(=O)=O [Example 957, (1S,3′R,6′R,7′S,8′E,12′R)-6-chloro-12′-methyl-7′-((2-methyl-2H-tetrazol-5-yl)methoxy)-3,4-dihydro-2H,15′H-spiro[naphthalene-1,22′-[20]oxa[13]thia[1,14]diazatetracyclo[14.7.2.0^3,6.0^19,24]pentacosa [8,16,18,24]tetraen]-15′-one 13′,13′-dioxide]",,,,0.442,308
"C[C@@H]1CC/C=C/[C@H](OCc2nc[nH]n2)[C@@H]2CC[C@H]2CN2C[C@@]3(CCCc4cc(Cl)ccc43)COc3ccc(cc32)C(=O)NS1(=O)=O [Example 958, (1S,3′R,6′R,7′S,8′E,12′R)-6-chloro-12′-methyl-7′-(4H-1,2,4-triazol-3-ylmethoxy)-3,4-dihydro-2H,15′H-spiro[naphthalene-1,22′-[20]oxa[13]thia[1,14]diazatetracyclo[14.7.2.0^3,6.0^19,24]pentacosa [8,16,18,24]tetraen]-15′-one 13′,13′-dioxide]",,,,0.253,3890
"CC[C@@H]1CC/C=C/[C@H](OCc2nccn2C)[C@@H]2CC[C@H]2CN2C[C@@]3(CCCc4cc(Cl)ccc43)COc3ccc(cc32)C(=O)NS1(=O)=O [Example 965, (1S,3′R,6′R,7′S,8′E,12′R)-6-chloro-12′-ethyl-7′-((1-methyl-1H-IMIDAZOL-2-yl)methoxy)-3,4-dihydro-2H,15′H-spiro[naphthalene-1,22′-[20]oxa[13]thia[1,14]diazatetracyclo[14.7.2.0^3,6.0^19,24]pentacosa [8,16,18,24]tetraen]-15′-one 13′,13′-dioxide]",,,,0.403,693
"CC[C@@H]1CC/C=C/[C@H](OCc2nnc(C)o2)[C@@H]2CC[C@H]2CN2C[C@@]3(CCCc4cc(Cl)ccc43)COc3ccc(cc32)C(=O)NS1(=O)=O [Example 966, (1S,3′R,6′R,7′S,8′E,12′R)-6-chloro-12′-ethyl-7′-((5-methyl-1,3,4-oxadiazol-2-yl)methoxy)-3,4-dihydro-2H,15′H-spiro[naphthalene-1,22′-[20]oxa[13]thia[1,14]diazatetracyclo[14.7.2.0^3,6.0^19,24]pentacosa [8,16,18,24]tetraen]-15′-one 13′,13′-dioxide]",,,,0.349,754
"CC[C@@H]1CC/C=C/[C@H](OCc2cc(C)nn2C)[C@@H]2CC[C@H]2CN2C[C@@]3(CCCc4cc(Cl)ccc43)COc3ccc(cc32)C(=O)NS1(=O)=O [Example 967, (1S,3′R,6′R,7′S,8′E,12′R)-6-chloro-7′-((1,3-dimethyl-1H-pyrazol-5-yl)methoxy)-12′-ethyl-3,4-dihydro-2H,15′H-spiro[naphthalene-1,22′-[20]oxa[13]thia[1,14]diazatetracyclo[14.7.2.0^3,6.0^19,24]pentacosa [8,16,18,24]tetraen]-15′-one 13′,13′-dioxide]",,,,1.06,461
"CC[C@@H]1CC/C=C/[C@H](OCc2ncccn2)[C@@H]2CC[C@H]2CN2C[C@@]3(CCCc4cc(Cl)ccc43)COc3ccc(cc32)C(=O)NS1(=O)=O [Example 977, (1S,3′R,6′R,7′S,8′E,12′R)-6-chloro-12′-ethyl-7′-(2-pyrimidinylmethoxy)-3,4-dihydro-2H,15′H-spiro[naphthalene-1,22′-[20]oxa[13]thia[1,14]diazatetracyclo[14.7.2.0^3,6.0^19,24]pentacosa [8,16,18,24]tetraen]-15′-one 13′,13′-dioxide]",,,,0.329,266
